According to patent publication US9073821B2, “Hydroxamic acid derivative” (priority 2010, dated 2015):
Converted amounts (≈) assume the structure as drawn. Where two headings read alike, the source gives them in different places.

Tests used:
[1] = target: Pseudomonas aeruginosa LpxC enzyme (Pseudomonas aeruginosa (strain ATCC 15692 / DSM 22644 / CIP 104116 / JCM 14847 / LMG 12228 / 1C / PRS 101 / PAO1), UniProt P47205); test: biochemical; format: biochemical
[2] = target: E. coli LpxC enzyme (Escherichia coli (strain K12), UniProt P0A725); test: Inhibitory activity on E. coli LpxC enzyme (fluorescamine assay); format: biochemical; conditions: Table 4
Chain of E. coli LpxC enzyme (P0A725 whole entry): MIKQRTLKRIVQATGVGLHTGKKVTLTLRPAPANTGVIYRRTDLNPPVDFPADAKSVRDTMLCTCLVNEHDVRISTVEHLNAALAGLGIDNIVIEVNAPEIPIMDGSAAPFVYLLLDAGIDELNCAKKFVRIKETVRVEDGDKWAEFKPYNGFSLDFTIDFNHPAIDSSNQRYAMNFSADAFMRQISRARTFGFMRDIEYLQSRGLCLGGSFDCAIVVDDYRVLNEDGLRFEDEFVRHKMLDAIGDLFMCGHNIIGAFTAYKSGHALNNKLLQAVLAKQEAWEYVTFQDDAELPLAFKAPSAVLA
Protocol: Test 2: Evaluation of the Inhibitory Activity on E. coli LpxC Enzyme
An inhibition curve was constructed for each test compound by performing the aforementioned reaction at varying concentrations of the test compound. From this inhibition curve, the concentration of the test compound at which the formation of the reaction product was suppressed by 50% was determined as the IC50 of the test compound, which was an index for the inhibitory activity on E. coli LpxC enzyme.

[3] = test system: E. coli strain ATCC25922; test: Antimicrobial activity, MIC by broth microdilution; format: cell-based; conditions: Escherichia coli, Table 4, 35° C., 18 hours, read-out: E. coli ATCC 25922 strain MIC
Excerpt: (§1) Test 3: Evaluation of Antimicrobial Activity For minimum inhibitory concentration (MIC) measurement, the following broth microdilution method was applied as adapted from the standard procedure recommended by the CLSI (Clinical and Laboratory Standards Institute). The bacteria used were Pseudomonas aeruginosa strain TS88 (clinical isolate), E. coli strain ATCC25922, and Klebsiella pneumoniae strain ATCC13883. After culture overnight on a heart infusion agar medium, the cells of a test bacterium were scraped off and suspended to give a turbidity of level 0.5 on the McFarland scale; the suspension was then diluted 10 fold to prepare an inoculum solution. A 0.005 mL aliquot of the inoculum solution was inoculated in a cation-adjusted Mueller-Hinton broth medium containing a test compound and cultured at 35° C. for 18 hours. A minimum drug concentration at which no cell growth was visible to the naked eye was designated as MIC.

[4] = test system: Klebsiella pneumoniae strain ATCC13883; test: Antimicrobial activity, MIC by broth microdilution; format: cell-based; conditions: Table 4, 35° C., 18 hours, read-out: Klebsiella pneumoniae ATCC 13883 strain MIC
Excerpt: as §1

[5] = test system: Pseudomonas aeruginosa strain TS88 (clinical isolate); test: Antimicrobial activity, MIC by broth microdilution; format: cell-based; conditions: 18 hours
Excerpt: as §1

[6] = Table 4, read-out: Pseudomonas aeruginosa LpxC IC50
[7] = inhibitory activity on Pseudomonas aeruginosa LpxC enzyme, class symbols A/B/C, read-out: Enzyme inhibitory activity
[8] = Table 4, 35° C., read-out: Pseudomonas aeruginosa TS88 strain MIC
[9] = Table 1, read-out: Pseudomonas aeruginosa LpxC IC50
[10] = Table 1, 35° C., read-out: MIC Pseudomonas aeruginosa TS88 strain

Row | Structure (SMILES) | IC50 [1, 6] | IC50 [1, 7] | IC50 [2] | MIC [3] | MIC [4] | MIC [5, 8] | IC50 [1, 9] | MIC [5, 10] | IC50 ([1]; class symbols A/B/C by IC50, Table 3, read-out: Enzyme inhibitory activity (inhibitory activity on Pseudomonas aeruginosa LpxC enzyme))
1 | CNC(=O)C(C(=O)NO)N(C)C(=O)c1ccc(C#Cc2ccc(CN3CCCOCC3)cc2)cc1 (stereo not drawn) [Compound 168, N-hydroxy-N′-methyl-2-[methyl(4-{[4-(1,4-oxazepan-4-ylmethyl)phenyl]ethynyl}benzoyl)amino]propanediamide] | 0.0042 µM | < 0.01 µM | 0.119 µM | 0.5 µg/mL (≈ 1.04 µM) | 2 µg/mL (≈ 4.18 µM) | 0.5 µg/mL (≈ 1.04 µM) |  |  | 
2 | CCOc1ccc(-c2ccc(C(=O)N(C)C(C(=O)NC)C(=O)NO)cc2)cc1 (stereo not drawn) [Compound 211, 2-{[(4′-ethoxybiphenyl-4-yl)carbonyl](methyl)amino}-N-hydroxy-N′-methylpropanediamide] | 0.0031 µM | < 0.01 µM | 0.109 µM | 1 µg/mL (≈ 2.59 µM) | 8 µg/mL (≈ 20.8 µM) | 0.5 µg/mL (≈ 1.3 µM) |  |  | 
3 | CNC(=O)C(C(=O)NO)N(C)C(=O)c1ccc(-c2ccc(CF)cc2)cc1 (stereo not drawn) [Compound 237, 2-[{[4′-(fluoromethyl)biphenyl-4-yl]carbonyl}(methyl)amino]-N-hydroxy-N′-methylpropanediamide] |  |  |  |  |  |  | 0.0045 µM | 0.5 µg/mL (≈ 1.34 µM) | 
4 | CNC(=O)C(C(=O)NO)N(C)C(=O)c1ccc(-c2ccc3c(c2)OCC3)cc1 (stereo not drawn) [Compound 271, 2-{[4-(2,3-dihydro-1-benzofuran-6-yl)benzoyl](methyl)amino}-N-hydroxy-N′-methylpropanediamide] |  |  |  |  |  |  | 0.005 µM | 0.5 µg/mL (≈ 1.3 µM) | 
5 | CNC(=O)C(C(=O)NO)N(C)C(=O)c1ccc(C#Cc2ccc(CNC3CC3)cc2)cc1 (stereo not drawn) [Compound 301, 2-[{[4-({4-[(Cyclopropylamino)methyl]phenyl}ethynyl)phenyl]carbonyl}(methyl)amino]-n-hydroxy-n′-methylpropanediamide] | 0.0061 µM | < 0.01 µM | 0.1 µM | 1 µg/mL (≈ 2.3 µM) | 4 µg/mL (≈ 9.21 µM) | 1 µg/mL (≈ 2.3 µM) |  |  | 
6 | CCOc1ccc(-c2ccc(C(=O)N(C)[C@@](C)(C(=O)NC)C(=O)NO)cc2)cc1 [Compound 399, (2S)-2-{[(4′-ethoxybiphenyl-4-yl)carbonyl](methyl)amino}-N-hydroxy-N′,2-dimethylpropanediamide] |  |  | 0.013 µM | 0.125 µg/mL (≈ 0.313 µM) | 0.5 µg/mL (≈ 1.25 µM) | 0.5 µg/mL (≈ 1.25 µM) |  |  | 
7 | CNC(=O)[C@@](C)(C(=O)NO)N(C)C(=O)c1ccc(-c2ccc3c(ccn3C)c2)cc1 [Compound 402, (2S)-N-hydroxy-N′,2-dimethyl-2-(methyl {[4-(1-methyl-1H-indol-5-yl)phenyl]carbonyl}amino)propanediamide] |  |  | 0.0049 µM | 0.125 µg/mL (≈ 0.306 µM) | 1 µg/mL (≈ 2.45 µM) | 1 µg/mL (≈ 2.45 µM) |  |  | 
8 | CNC(=O)C(C(=O)NO)N(C)C(=O)c1ccc(-c2ccc(C#CCOC)cc2)cc1 (stereo not drawn) [Compound 405, N-hydroxy-2-[{[4′-(3-methoxyprop-1-yn-1-yl)biphenyl-4-yl]carbonyl}(methyl)amino]-N′-methylpropanediamide] | 0.0029 µM | < 0.01 µM |  | 0.5 µg/mL (≈ 1.22 µM) | 4 µg/mL (≈ 9.77 µM) | 0.5 µg/mL (≈ 1.22 µM) |  |  | 
9 | CNC(=O)[C@@](C)(C(=O)NO)N(C)C(=O)c1ccc(-c2ccc(SC)cc2)cc1 [Compound 406, (2S)-N-hydroxy-N′,2-dimethyl-2-(methyl {[4′-(methylsulfanyl)biphenyl-4-yl]carbonyl}amino)propanediamide] |  |  |  | 0.125 µg/mL (≈ 0.311 µM) | 0.5 µg/mL (≈ 1.25 µM) | 0.5 µg/mL (≈ 1.25 µM) |  |  | 
10 | CNC(=O)[C@@](C)(C(=O)NO)N(C)C(=O)c1ccc(C#Cc2ccc(CCN3CCOCC3)cc2)cc1 [Compound 410, (2S)-N-hydroxy-N′,2-dimethyl-2-(methyl {[4-({4-[2-(morpholin-4-yl)ethyl]phenyl}ethynyl)phenyl]carbonyl}amino)propanediamide] |  |  | 0.078 µM | 0.25 µg/mL (≈ 0.508 µM) | 1 µg/mL (≈ 2.03 µM) | 1 µg/mL (≈ 2.03 µM) |  |  | 
11 | CNC(=O)[C@@](C)(C(=O)NO)N(C)C(=O)c1ccc(C#Cc2ccc(CN3CC4(COC4)C3)cc2)cc1 [Compound 416, (2S)-N-hydroxy-N′,2-dimethyl-2-{methyl[(4-{[4-(2-oxa-6-azaspiro[3.3]hept-6-ylmethyl)phenyl]ethynyl}phenyl)carbonyl]amino}propanediamide] |  |  |  | 0.5 µg/mL (≈ 1.02 µM) | 2 µg/mL (≈ 4.08 µM) | 1 µg/mL (≈ 2.04 µM) |  |  | 
12 | CNC(=O)[C@@](C)(C(=O)NO)N(C)C(=O)c1ccc(C#Cc2ccc(CNCc3ccco3)cc2)cc1 [Compound 417, (2S)-2-[({4-[(4-{[(furan-2-ylmethyl)amino]methyl}phenyl)ethynyl]phenyl}carbonyl)(methyl)amino]-N-hydroxy-N′,2-dimethylpropanediamide] |  |  |  | 0.0625 µg/mL (≈ 0.128 µM) | 0.25 µg/mL (≈ 0.512 µM) | 0.5 µg/mL (≈ 1.02 µM) |  |  | 
13 | CNC(=O)[C@@](C)(C(=O)NO)N(C)C(=O)c1ccc(C#Cc2ccc(C3(NC)CC3)cc2)cc1 [Compound 435, (2S)-N-hydroxy-N′,2-dimethyl-2-(methyl {[4-({4-[1-(methylamino)cyclopropyl]phenyl}ethynyl)phenyl]carbonyl}amino)propanediamide] |  |  |  | 1 µg/mL (≈ 2.23 µM) | 2 µg/mL (≈ 4.46 µM) | 1 µg/mL (≈ 2.23 µM) |  |  | 
14 | CNC(=O)C(C(=O)NO)N(C)C(=O)c1ccc(C#CC#CC2CC2)cc1 (stereo not drawn) [Compound 507, 2-({[4-(4-Cyclopropylbuta-1,3-diyn-1-yl)phenyl]carbonyl}(methyl)amino)-N-hydroxy-N′-methylpropanediamide] |  |  | 0.012 µM | 0.125 µg/mL (≈ 0.354 µM) | 1 µg/mL (≈ 2.83 µM) | 0.25 µg/mL (≈ 0.707 µM) |  |  | 
15 | CNC(=O)[C@@](C)(C(=O)NO)N(C)C(=O)c1ccc(C#Cc2ccc(CNC3CC3)cc2)cc1 [Compound 553, (2S)-2-[{[4-({4-[(cyclopropylamino)methyl]phenyl}ethynyl)phenyl]carbonyl}(methyl)amino]-N-hydroxy-N′,2-dimethylpropanediamide] |  |  |  | 0.25 µg/mL (≈ 0.557 µM) | 0.5 µg/mL (≈ 1.11 µM) | 0.5 µg/mL (≈ 1.11 µM) |  |  | 
16 | CNC(=O)[C@@](C)(C(=O)NO)N(C)C(=O)c1ccc(C#Cc2ccc(CNCCF)cc2)cc1 [Compound 554, (2S)-2-[({4-[(4-{[(2-fluoroethyl)amino]methyl}phenyl)ethynyl]phenyl}carbonyl)(methyl)amino]-N-hydroxy-N′,2-dimethylpropanediamide] |  |  | 0.12 µM | 0.5 µg/mL (≈ 1.1 µM) | 1 µg/mL (≈ 2.2 µM) | 0.5 µg/mL (≈ 1.1 µM) |  |  | 
17 | CNC(=O)[C@@](C)(C(=O)NO)N(C)C(=O)c1ccc(C#Cc2ccc(CN3CC(C)(OC)C3)cc2)cc1 [Compound 558, (2S)-N-hydroxy-2-[{[4-({4-[(3-methoxy-3-methylazetidin-1-yl)methyl]phenyl}ethynyl)phenyl]carbonyl}(methyl)amino]-N′,2-dimethylpropanediamide] |  |  | 0.235 µM | 0.5 µg/mL (≈ 1.02 µM) | 2 µg/mL (≈ 4.06 µM) | 1 µg/mL (≈ 2.03 µM) |  |  | 
18 | CNC(=O)[C@@](C)(C(=O)NO)N(C)C(=O)c1ccc(C#Cc2ccc(CN3CC(OCCF)C3)cc2)cc1 [Compound 559, (2S)-2-[({4-[(4-{[3-(2-fluoroethoxy)azetidin-1-yl]methyl}phenyl)ethynyl]phenyl}carbonyl)(methyl)amino]-N-hydroxy-N′,2-dimethylpropanediamide] |  |  |  | 0.25 µg/mL (≈ 0.49 µM) | 1 µg/mL (≈ 1.96 µM) | 1 µg/mL (≈ 1.96 µM) |  |  | 
19 | CNC(=O)[C@@](C)(C(=O)NO)N(C)C(=O)c1ccc(C#Cc2ccc(CN3CCOCC3)cc2)cc1 [Compound 561, (2S)-N-hydroxy-N′,2-dimethyl-2-{methyl[(4-{[4-(morpholin-4-ylmethyl)phenyl]ethynyl}phenyl)carbonyl]amino}propanediamide] |  |  | 0.03 µM | 0.125 µg/mL (≈ 0.261 µM) | 0.5 µg/mL (≈ 1.04 µM) | 0.5 µg/mL (≈ 1.04 µM) |  |  | 
20 | CCOC1CN(Cc2ccc(C#Cc3ccc(C(=O)N(C)C(C(=O)NC)C(=O)NO)cc3)cc2F)C1 (stereo not drawn) [Compound 563, 2-[{[4-({4-[(3-ethoxyazetidin-1-yl)methyl]-3-fluorophenyl}ethynyl)phenyl]carbonyl}(methyl)amino]-N-hydroxy-N′-methylpropanediamide] |  |  |  | 1 µg/mL (≈ 2.01 µM) | 4 µg/mL (≈ 8.06 µM) | 1 µg/mL (≈ 2.01 µM) |  |  | < 0.01 µM
21 | CNC(=O)[C@@](C)(C(=O)NO)N(C)C(=O)c1ccc(C#Cc2ccc(CN3CCC(OC)CC3)cc2)cc1 [Compound 565, (2S)-N-hydroxy-2-[{[4-({4-[(4-methoxypiperidin-1-yl)methyl]phenyl}ethynyl)phenyl]carbonyl}(methyl)amino]-N′,2-dimethylpropanediamide] |  |  |  | 0.5 µg/mL (≈ 0.987 µM) | 2 µg/mL (≈ 3.95 µM) | 1 µg/mL (≈ 1.97 µM) |  |  | 
22 | CNC(=O)[C@@](C)(C(=O)NO)N(C)C(=O)c1ccc(C#Cc2ccc(CN3CC(OC)C3)cc2)cc1 [Compound 567, (2S)-N-hydroxy-2-[{[4-({4-[(3-methoxyazetidin-1-yl)methyl]phenyl}ethynyl)phenyl]carbonyl}(methyl)amino]-N′,2-dimethylpropanediamide] |  |  | 0.177 µM | 0.5 µg/mL (≈ 1.04 µM) | 2 µg/mL (≈ 4.18 µM) | 1 µg/mL (≈ 2.09 µM) |  |  | 
